Source: the Deep4Chem optical property database
Where “and” joins values, the source holds several entries; their conditions need not be identical. Equal entries are not always repeated.

Assay: photoluminescence quantum yield (fraction); solvent given as SMILES
[1] = in c1ccc2c(c1)c1ccccc1n2-c1ccc(-c2ccc(-n3c4ccccc4c4ccccc43)cc2)cc1

COc1ccc(-c2nnc(-c3cc(-c4nnc(-c5ccc(OC)cc5)o4)c(-n4c5ccccc5c5ccccc54)cc3-n3c4ccccc4c4ccccc43)o2)cc1
photoluminescence quantum yield (in Cc1ccccc1): 0.133
photoluminescence quantum yield (in O=P(c1ccccc1)(c1ccccc1)c1ccccc1Oc1ccccc1P(=O)(c1ccccc1)c1ccccc1): 0.354

F[B-]1(F)n2cccc2C=C2c3ccccc3C(c3ccc[nH]3)=[N+]21
photoluminescence quantum yield (in C1CCOC1): 0.82
photoluminescence quantum yield (in CC#N): 0.8
photoluminescence quantum yield (in CCCCCC): 0.83
photoluminescence quantum yield (in CO): 0.76
photoluminescence quantum yield (in Cc1ccccc1): 0.81
photoluminescence quantum yield (in ClCCl): 0.8

CC[n+]1nc2cc3c4c(c2c2ccccc21)CCCN4CCC3
photoluminescence quantum yield (in O): 0.25

CC(C)(C)c1ccc(-c2sc3c(-c4ccc(C(C)(C)C)cc4)c4n(c3c2-c2ccc(C(C)(C)C)cc2)[B-](F)(F)[N+]2=Cc3c(-c5ccc(C(C)(C)C)cc5)c5sc(-c6ccc(C(C)(C)C)cc6)c(-c6ccc(C(C)(C)C)cc6)c5n3[B-](F)(F)[N+]2=C4)cc1
photoluminescence quantum yield (in CC#N): 0.49
photoluminescence quantum yield (in CCCCCC): 0.64
photoluminescence quantum yield (in CN(C)C=O): 0.45
photoluminescence quantum yield (in Cc1ccccc1): 0.59
photoluminescence quantum yield (in ClCCl): 0.6

C(#Cc1ccc2ccc3cccc4ccc1c2c34)c1ccccc1
photoluminescence quantum yield (in Cc1ccccc1): 0.61

C(=C\c1ncnc2ccccc12)/c1ccc(-c2ccc(N(c3ccccc3)c3ccccc3)cc2)cc1
photoluminescence quantum yield (in ClCCl): 0.23

CCC1=C(C)C2=Cc3ccccc3B(O)N2C1=O
photoluminescence quantum yield (in CC#N): 0.42
photoluminescence quantum yield (in CCCCCC): 0.25
photoluminescence quantum yield (in CO): 0.12
photoluminescence quantum yield (in CS(C)=O): 0.19
photoluminescence quantum yield (in ClC(Cl)Cl): 0.36

COc1ccc(-c2nc3c(ccc4ccccc43)oc2=O)cc1
photoluminescence quantum yield (in c1ccccc1): 0.57

N#Cc1cc2ccccc2oc1=N
photoluminescence quantum yield (in C1CCOC1): 0.0681
photoluminescence quantum yield (in CC#N): 0.00119
photoluminescence quantum yield (in CCOC(C)=O): 0.0842
photoluminescence quantum yield (in CS(C)=O): 0.00124
photoluminescence quantum yield (in ClC(Cl)Cl): 0.0946

c1cc2cc(c1)c1cccc(c1)c1cccc(c1)c1cccc(c1)c1cccc(c1)c1cccc2c1
photoluminescence quantum yield (in ClC(Cl)Cl): 0.06

C[n+]1ccc(/C=C/c2cc[n+](C)cc2)cc1
photoluminescence quantum yield (in CC#N): 0.015

COc1ccc(C2=[N+]3C(=Nc4c(-c5cc(OC)c(OC)c(OC)c5)c(-c5ccc(C(C)(C)C)cc5)c(-c5ccc(OC)cc5)n4[B-]3(F)F)C(c3cc(OC)c(OC)c(OC)c3)=C2c2ccc(C(C)(C)C)cc2)cc1
photoluminescence quantum yield (in Cc1ccccc1): 0.04

C#CCn1c2ccccc2c2cc(/C=C/C3=[N+]4C(=C(c5ccc(I)cc5)c5c(C)c(Cl)c(/C=C/c6ccc7c(c6)c6ccccc6n7CC#C)n5[B-]4(F)F)C(C)=C3Cl)ccc21
photoluminescence quantum yield (in CC#N): 0.5
photoluminescence quantum yield (in CS(C)=O): 0.32
photoluminescence quantum yield (in ClC(Cl)Cl): 0.55

CC(C)(C)c1ccc2c(c1)oc1nc3oc4ccc(-n5c6ccccc6c6ccccc65)cc4c3cc12
photoluminescence quantum yield (in ClC(Cl)Cl): 0.075

CC1=CC(C)=[N+]2C1=C(c1ccccc1)c1c(C)cc(/C=C/c3ccccc3)n1[B-]2(F)F
photoluminescence quantum yield (in CC#N): 0.7

N#Cc1cnc(-c2c3ccccc3c(-c3ncc(C#N)cn3)c3ccccc23)nc1
photoluminescence quantum yield (in CCO): 0.16
photoluminescence quantum yield (in ClCCl): 0.54

O=c1oc2cccc3c4cccc5ccc6c7cc(F)ccc7c1c(c23)c6c54
photoluminescence quantum yield (in C1CCOC1): 0.216

CCn1c2ccccc2c2cc(-c3cc(-c4ccc5c(c4)c4ccccc4n5CC)nc(-c4ccc(OC)cc4)n3)ccc21
photoluminescence quantum yield (in C1CCOC1): 0.45
photoluminescence quantum yield (in CCOC(C)=O): 0.56
photoluminescence quantum yield (in CN(C)C=O): 0.68
photoluminescence quantum yield (in Cc1ccccc1): 0.54
photoluminescence quantum yield (in ClCCl): 0.42

COc1ccc(C#Cc2ncc(-c3ccccc3)o2)cc1OC
photoluminescence quantum yield (in ClCCl): 0.04

C[Si](C)(C)c1ccc(-c2ccc(-c3ccc(-c4ccc(-c5ccc([Si](C)(C)C)cc5)cc4)c4nsnc34)cc2)cc1
photoluminescence quantum yield (in C1CCOC1): 0.84

Cc1ccc(C)c(C)c1
photoluminescence quantum yield (in C1CCCCC1): 0.41

CC[N+]1(CC)CN2C(=N1)C(C(=O)O)=Cc1c(OC)ccc(OC)c12
photoluminescence quantum yield (in O): 0.018

CCCCCCCCCC1(CCCCCCCCC)c2cc(C#Cc3ccc(C#Cc4ccc(N(CCCCCC)CCCCCC)cc4)cc3)ccc2-c2ccc(C#Cc3ccc(C#Cc4ccc(N(CCCCCC)CCCCCC)cc4)cc3)cc21
photoluminescence quantum yield (in Cc1ccccc1): 0.82

CCN(CC)c1ccc(-n2c(C)ccc2C)cc1
photoluminescence quantum yield (in CC#N): 0.24
photoluminescence quantum yield (in CCCCCC): 0.17

CC1=N/C(=C\c2cc(N(C)C)ccc2C#N)C(=O)N1C
photoluminescence quantum yield (in C1CCOC1): 0.19
photoluminescence quantum yield (in CC#N): 0.07
photoluminescence quantum yield (in CCCCCC): 0.6

Cc1cc(/N=C/c2cc(S(=O)(=O)[O][Na])ccc2O)c(/N=C/c2cc(S(=O)(=O)[O][Na])ccc2O)cc1C
photoluminescence quantum yield (in O): 0.56

CN(C)c1ccc(-c2cc(=O)c3ccccc3o2)cc1
photoluminescence quantum yield (in C1CCCCC1): 0.007
photoluminescence quantum yield (in C1CCOC1): 1
photoluminescence quantum yield (in CC#N): 1 and 0.96
photoluminescence quantum yield (in CCOC(C)=O): 1
photoluminescence quantum yield (in CCOCC): 0.87
photoluminescence quantum yield (in CO): 0.095
photoluminescence quantum yield (in Cc1ccccc1): 0.76

N#Cc1c(C#N)c(-n2c3ccccc3c3ccccc32)c(-n2c3ccccc3c3ccccc32)c(-n2c3ccccc3c3ccccc32)c1-n1c2ccccc2c2ccccc21
photoluminescence quantum yield (in Cc1ccccc1): 0.744

CC1(C)c2ccccc2N(c2ccc(C(=O)c3cc(C(=O)c4ccc(N5c6ccccc6C(C)(C)c6ccccc65)cc4)cc(C(=O)c4ccc(N5c6ccccc6C(C)(C)c6ccccc65)cc4)c3)cc2)c2ccccc21
photoluminescence quantum yield (in Cc1ccccc1): 0.189
photoluminescence quantum yield [1]: 0.856

COc1ccc(O)c(-c2[nH]c(=O)n3c2-c2ccccc2C3=O)c1
photoluminescence quantum yield (in CC#N): 0.46
photoluminescence quantum yield (in CO): 0.01
photoluminescence quantum yield (in ClCCl): 0.66

N#Cc1ncc(-c2c3ccccc3c(-c3cnc(C#N)nc3)c3ccccc23)cn1
photoluminescence quantum yield (in CCO): 0.05
photoluminescence quantum yield (in ClCCl): 0.57

CC(C)(C)c1ccc(-c2cnc3cccc(-c4ccccc4)n23)cc1
photoluminescence quantum yield (in ClCCl): 0.31

O=Cc1cnc(-c2c3ccccc3cc3ccccc23)nc1
photoluminescence quantum yield (in CCO): 0.25
photoluminescence quantum yield (in ClCCl): 0.28

CC1=CC(C)=[N+]2C1=Cc1c(C)cc(C)n1[B-]2(F)F
photoluminescence quantum yield (in CCCCCC): 0.96
photoluminescence quantum yield (in CO): 0.99
photoluminescence quantum yield (in ClCCl): 0.92

CCn1c(-c2ccc(-c3ccc4ccc5cccc6ccc3c4c56)cc2)c(-c2ccc3ccccc3c2)c(-c2ccc3ccccc3c2)c1-c1ccc(-c2ccc3ccc4cccc5ccc2c3c45)cc1
photoluminescence quantum yield (in CCOC(C)=O): 0.99

CCCCCCN(c1ccccc1)c1ccc(/C=C/c2cc(=O)oc3cc(C)ccc23)cc1
photoluminescence quantum yield (in ClC(Cl)Cl): 0.05

O=c1oc2ccccc2cc1/C=C/c1ccc([N+](=O)[O-])cc1
photoluminescence quantum yield (in CC#N): 0.04

COc1c(-c2c(OC)c3cccc4ccc5oc(=O)cc2c5c43)c2cc(=O)oc3ccc4cccc1c4c32
photoluminescence quantum yield (in CC1CCCO1): 0.35

C[Si]1(C)O[Si](C)(C)c2cc3c(-c4ccccc4F)c4cc(Cl)ccc4nc3cc21
photoluminescence quantum yield (in ClCCl): 0.56

Nc1ccc2nc3c4ccccc4c(=[NH2+])cc-3oc2c1
photoluminescence quantum yield (in CCO): 0.582

CCCCCCN1C(=O)C(c2ccc(-c3ccc(-n4c5ccccc5c5ccccc54)cc3)cc2)=C(c2ccc(-c3ccc(-n4c5ccccc5c5ccccc54)cc3)cc2)C1=O
photoluminescence quantum yield (in ClC(Cl)Cl): 0.84
photoluminescence quantum yield [1]: 0.57

COc1ccc(C#Cc2c3cc4ccccc4cc3c(C#C[Si](C(C)C)(C(C)C)C(C)C)c3cc4ccccc4cc23)cc1
photoluminescence quantum yield (in ClCCl): 0.05

COc1ccc(-c2nc3ccccc3nc2/C=C/N2CCCC2)s1
photoluminescence quantum yield (in C1CCCCC1): 0.072
photoluminescence quantum yield (in C1CCOC1): 0.155
photoluminescence quantum yield (in CC#N): 0.21
photoluminescence quantum yield (in CC(C)=O): 0.209
photoluminescence quantum yield (in CCO): 0.031
photoluminescence quantum yield (in CO): 0.009
photoluminescence quantum yield (in CS(C)=O): 0.184
photoluminescence quantum yield (in Cc1ccccc1): 0.095
photoluminescence quantum yield (in ClCCl): 0.19

CCN(C)c1ccc(C2=C3C(C)=CC(/C=C/c4ccc(OCC(=O)OC)cc4)=[N+]3[B-](F)(F)n3c(C)cc(C)c32)cc1
photoluminescence quantum yield (in CO): 0.78

C1=[N+](c2ccccc2)[B-](c2ccccc2)(c2ccccc2)Oc2c1ccc1c3c(ccc21)C=[N+](c1ccccc1)[B-](c1ccccc1)(c1ccccc1)O3
photoluminescence quantum yield (in Cc1ccccc1): 0.7
photoluminescence quantum yield (in ClCCl): 0.76

c1ccc(N(c2ccccc2)c2ccc3ccc4c(N(c5ccccc5)c5ccccc5)ccc5ccc2c3c54)cc1
photoluminescence quantum yield (in ClCCl): 0.78

CC(C)[Si](C#Cc1c2nc3c(nc2c(C#C[Si](C(C)C)(C(C)C)C(C)C)c2nc4ccccc4nc12)C1c2ccccc2C3c2ccccc21)(C(C)C)C(C)C
photoluminescence quantum yield (in CCCCCC): 0.21

COc1ccc(-c2cc3c(s2)-c2sc(-c4ccc(OC)cc4)cc2P(c2ccccc2)(c2ccccc2)=[O+][B-]3(c2c(C)cc(C)cc2C)c2c(C)cc(C)cc2C)cc1
photoluminescence quantum yield (in C1CCOC1): 0.52

CCCCn1c(-c2ccc(-c3ccc(-c4ccc(-c5n(CCCC)c6cc(C)ccc6[n+]5CCCC)cc4)cc3)cc2)[n+](CCCC)c2ccc(C)cc21
photoluminescence quantum yield (in O): 0.78

c1ccc(-c2c3ccccc3c(-c3ccccc3)c3ccccc23)cc1
photoluminescence quantum yield (in C1CCCCC1): 0.97

Fc1nc(F)c(F)c(C#Cc2ccccc2C#Cc2c(F)c(F)nc(F)c2F)c1F
photoluminescence quantum yield (in CC#N): 0.63

CN(C)c1nc(N(C)C)c2nc(C#N)n(Cc3ccccc3)c2n1
photoluminescence quantum yield (in C1COCCO1): 0.95
photoluminescence quantum yield (in CC#N): 0.26
photoluminescence quantum yield (in CO): 0.03
photoluminescence quantum yield (in ClCCl): 0.2

Nc1ccc(C#Cc2ccc3ccc4ccc(C#Cc5ccc(NS(=O)(=O)c6ccc([N+](=O)[O-])cc6[N+](=O)[O-])cc5)c5ccc2c3c45)cc1
photoluminescence quantum yield (in CO): 0.016

COc1cc(C(=O)O)ccc1O
photoluminescence quantum yield (in O): 0.03

Cc1cccc2nc3[nH]c(=O)[nH]c(=O)c3nc12
photoluminescence quantum yield (in CC#N): 0.017

Cc1cn2cc(-c3ccc(-c4ccccc4)cc3)[n-][n+]2c1
photoluminescence quantum yield (in ClCCl): 0.27

COc1cc2c(cc1OC)C1=C3C(=O)N4C=Cc5cc(OC)c(OC)cc5C4=C3C(=O)N1C=C2
photoluminescence quantum yield (in CN(C)C=O): 0.7
photoluminescence quantum yield (in ClC(Cl)Cl): 0.85

CCOC(=O)COc1ccc(/C=C/C2=C3c4ccccc4C(c4ccc[nH]4)=[N+]3[B-](F)(F)n3ccc(C)c32)cc1
photoluminescence quantum yield (in C1CCOC1): 0.003
photoluminescence quantum yield (in CC#N): 0.003
photoluminescence quantum yield (in CCCCCC): 0.009
photoluminescence quantum yield (in CO): 0.005
photoluminescence quantum yield (in Cc1ccccc1): 0.004
photoluminescence quantum yield (in ClCCl): 0.003
